Data published in US9670217B2, “Process for preparing chlorins and their pharmaceutical uses” (UNIVERSIDADE DE COIMBRA, priority 2008, dated 2017).

Legend:
[1] = Photobleaching under 748 nm diode laser irradiation; assay type: physicochemical; conditions: for t1/2 (photobleaching half-life): 100 mW laser irradiation at 748 nm
Source text: The irradiation of bacteriochlorins in the photobleaching experiments employed the 748 nm Lynx diode laser. For animal studies we employed a costumer-made Hamamatsu diode laser, type LA0873. S/N M070301, which delivered 140 mW at 748 nm. This diode laser was controlled by a ThorLabs 500 mA ACC/APC Laser Diode Controller and in-house electronics. The laser energies of this and the other higher-energy lasers employed in this work were regularly checked with an Ophir model AN/2E laser power meter.
Photobleaching experiments were conducted in PBS. PBS:methanol (50:50) and methanol solutions. The solutions were irradiated in a cuvette with an optical path of 1 cm and the Lynx diode laser. The initial absorption of the solutions was ca. 0.8. The mechanism of photobleaching was assessed with the irradiation of the sensitizer using the Hamamatsu diode laser at 80 mW. The sensitizer was irradiated in PBS and in the presence of ascorbic acid or azide.
The chemical stability of the compounds was studied exposing them to light, air, and pH changes. The most significant degradation occurs for aerated solutions irradiated by light of the appropriate wavelength. In such circumstances the photobleaching of the compounds follows a first-order rate and is proportional to the energy of the incident laser light. In general, it was also observed that the photobleaching rate increases with the amount of water present in the solution. Bennett reported the photoconversion of Foscan® (m-THPC) and of the analogous bacteriochlorin (m-THPB) in PBS:methanol (50:50). Scherz reported the photoconversion of Tookad® in acetone and Triton-X:PBS [3]. For the purpose of comparing the photostability of Luzitins with that of Foscan® and Tookad®, we present in Table 2 the half-lives (t1/2) of representative drugs described herein, together with those of Foscan and Tookad® normalized for a laser power of 100 mW.
Luzitin-FMet was dissolved in PBS:methanol (2:3), transferred to a 1 cm quartz cell and its absorption spectrum was registered, FIG. 6. The quartz cell was then placed in the beam of the 748 nm Lynx diode laser, previously unfocused to have a beam diameter coincident with the window of the quartz cell. The laser power measured under these conditions was 28.8 mW. Every 5 minutes the irradiation was interrupted and a new absorption spectrum was registered. This procedure was followed for 65 minutes. The photobleaching follows the kinetics of a first-order reaction in the time window of the experiment. […] Whereas the bacteriochlorin peak at 743 nm is reduced from an absorbance of 1.128 to 0.337, the absorption of the chlorin only increases from 0.114 to 0.151. Taking into consideration the molar absorption coefficients of the compounds at these wavelengths, it is clear that whereas 70% of the bacteriochlorin is destroyed during the irradiation, only a few percent of chlorin are formed.
The half-lives of other bacteriochlorins normalized 100 mW laser irradiation at 748 nm are presented in […], together with the literature data for the photodegradation of Foscan® and Tookad® normalized for the same light intensity. It was also observed that the half-live to Luzitin-Cl is increased by a factor of 30 when the PBS solution of the photosensitizer is saturated with Argon, which reduces the oxygen concentration in the solution.

[2] = system: PC-3 (human prostate carcinoma); test: Cytotoxicity in the dark, resazurin assay; assay type: cell-based
Description: The cell lines employed in laser irradiation were the HT-29 (human colon carcinoma), PC-3 (human prostate carcinoma), SW2 (human small cell lung cancer), A-549 (human non-small cell lung cancer). S91/I3 (mouse melanoma) and CT26 (mouse colon carcinoma). They were used both for cytotoxicity and photocytotoxicity experiments. PC-3. SW2 and S91113 cells were cultured in RPMI-1640 medium (Sigma-Aldrich, Steinheim, Germany) and HT-29, A-549 and CT26 cells were cultured in Dulbecco's Modified Eagle Medium (DMEM) (Cambrex Bioscience, Verviers, Belgium). Both cell culture mediums were supplemented with 10% heat-inactivated Fetal Bovine Serum (FBS) (Cambrex Bioscience, Verviers, Belgium) and 100 IU/ml penicillin-100 μg/ml streptomycin (Cambrex Bioscience, Verviers, Belgium). The DMEM medium used for CT26 cells was also supplemented with HEPES 10 mM. Cell lines were maintained in 75 cm^2 flasks (Orange Scientific, Braine-l'Alleud, Belgium) at 37° C. in humidified atmosphere with 5% CO2. For the in vitro studies, cells at 85-90% confluence, were detached with Trypsin-Versene-EDTA solution (Cambrex Bioscience, Verviers, Belgium), counted and seeded in flat-bottom 96-well plates at the desired densities.
Cell viability assay. In the end of the experiences cell viability was evaluated by the resazurin reduction assay. Briefly, resazurin (Sigma-Aldrich, Steinhelm, Germany) stock solution (0.1 mg/ml in phosphate buffer saline (PBS) pH 7.4) was diluted 10% in culture medium without FBS or antibiotics and 200 μl were added to the cells in each well. Plates were incubated for 3-4 h at 37° C. The absorbance values of each well were measured at 540 nm and 630 nm using a microplate reader Multiskan Ex (Thermo-Electron Corporation, Vartaa, Finland).
Cytotoxicity. Cells were seeded in flat-bottom 96-well plates (Orange Scientific, Braine-l'Alleud, Belgium) in 100 μl of culture medium and were allowed to adhere overnight. The photosensitizer was added to the cells (diluted in 100 μl culture medium) at final concentrations between 0.01 and 1 mM. Each concentration was tested in quadruplicate. The incubation periods in the dark at 37° C. were two times the doubling time for the tested cell line. After the incubation the cell viability was evaluated. In parallel control experiments, cells were incubated without the drug. Cytotoxicity was quantified by expressing cell death relatively to untreated cells (% of control cells). The results were plotted as dose response curves (% of cell death as a function of the concentration of the DRUG), which allow the determination of the concentration that inhibit 50% of cell growth (IC50).

[3] = system: A-549 (human non-small cell lung carcinoma); test: Cell photosensitization, 748 nm diode laser, resazurin; assay type: cell-based; conditions: 6 J/cm^2 diode laser irradiation at 28.5 mW

Structure (SMILES): O=S(=O)(O)c1ccc(Cl)c(-c2c3nc(c(-c4c(Cl)ccc(S(=O)(=O)O)c4Cl)c4ccc([nH]4)c(-c4c(Cl)ccc(S(=O)(=O)O)c4Cl)c4nc(c(-c5c(Cl)ccc(S(=O)(=O)O)c5Cl)c5ccc2[nH]5)CC4)CC3)c1Cl [Luzitin-Cl2, 5,10,15,20-tetrakis(2,6-dichloro-3-sulfonylphenyl)bacteriochlorin]
- t1/2 (photobleaching half-life) ([1]; PBS): 358 s
- highest concentration that causes relatively no effect in viability in the dark ([2]; PC-3, dark): 0.05 mM

Structure (SMILES): CCNS(=O)(=O)c1ccc(Cl)c(-c2c3nc(c(-c4c(Cl)ccc(S(=O)(=O)NCC)c4Cl)c4ccc([nH]4)c(-c4c(Cl)ccc(S(=O)(=O)NCC)c4Cl)c4nc(c(-c5c(Cl)ccc(S(=O)(=O)NCC)c5Cl)c5ccc2[nH]5)CC4)CC3)c1Cl [Luzitin-Cl2Et, 5,10,15,20-tetrakis(2,6-dichloro-3-N-ethylsulfamoylphenyl)bacteriochlorin]
- t1/2 (photobleaching half-life) ([1]; PBS:methanol): 4,013 sec
- concentration of sensitizer required to kill 90% of cells (LD90) [3]: 10 µM

Structure (SMILES): O=S(=O)(O)c1ccc(Cl)c(-c2c3nc(c(-c4cc(S(=O)(=O)O)ccc4Cl)c4ccc([nH]4)c(-c4cc(S(=O)(=O)O)ccc4Cl)c4nc(c(-c5cc(S(=O)(=O)O)ccc5Cl)c5ccc2[nH]5)CC4)CC3)c1 [Luzitin-Cl, 5,10,15,20-tetrakis(2-chloro-5-sulfonylphenyl)bacteriochlorin]
- t1/2 (photobleaching half-life) ([1]; PBS): 174 s
- IC50 ([2]; PC-3, incubation 72 h in the dark, read-out: IC50 dark toxicity): 600 µM

Structure (SMILES): CNS(=O)(=O)c1ccc(F)c(-c2c3nc(c(-c4cc(S(=O)(=O)NC)ccc4F)c4ccc([nH]4)c(-c4cc(S(=O)(=O)NC)ccc4F)c4nc(c(-c5cc(S(=O)(=O)NC)ccc5F)c5ccc2[nH]5)CC4)CC3)c1 [Luzitin-FMet, 5,10,15,20-tetrakis(2-fluoro-5-N-methylsulfamoylphenyl)bacteriochlorin]
- bacteriochlorin destroyed during irradiation ([1]; PBS:methanol (2:3), 748 nm, 28.8 mW, 65 minutes): 70%
- t1/2 (photobleaching half-life) ([1]; PBS:methanol): 647 s
- t1/2 (photobleaching half-life) ([1]; methanol): 3,553 sec
- concentration of sensitizer required to kill 90% of cells (LD90) [3]: 0.5 µM
